Reference: a melting point compilation (Tetko et al.)

O=C(O)C#CC(=O)O
melting point: 180 to 187 °C

COc1c(OC)c(OC(C)=O)c2c(C#N)cccc2c1OC(C)=O
melting point: 152 °C

O=Cc1cc2c(cc1Cl)OCO2
melting point: 116 °C

O=Cc1ccccc1N1CCOCC1
melting point: 45 to 46 °C

CCCCCCc1ccc(C(=O)O)cc1
melting point: 94 to 99 °C

CC(=O)SC1CC2=CC(=O)CCC2(C)C2CCC3(C)C(CCC34CCC(=O)O4)C12 (configuration not stated)
melting point: 208 °C

c1ccc(Oc2ccccc2-c2ccccc2)cc1
melting point: 49 °C

CCOc1cccc(OCC(F)(F)F)c1C#N
melting point: 78 to 80 °C

CC1=Nc2ccc3ccccc3c2C1(C)C
melting point: 117 °C

O=Cc1ccc(-c2ccc(C=O)cc2)cc1
melting point: 148 °C

Cc1cccc(C)c2cc(C(C)C)cc1-2
melting point: 32.3 °C

CC(C)NCC(O)COc1ccc(O)cc1 (configuration not stated)
melting point: 128 °C

CC1=C(c2ccccc2)C(=O)N(C(C)(C)c2cc(Cl)cc(Cl)c2)CO1
melting point: 150 °C

Nc1ccc(Cn2cccn2)cc1
melting point: 67 to 69 °C

O=c1[nH]c(=O)n(C2OC(CO)C(O)C2O)cc1F (configuration not stated)
melting point: 180 to 183 °C

C=CCCCCCCC(=O)O
melting point: 5 °C

S=C1NCCCN1
melting point: 211 °C

O=C(O)c1nsc(Cl)c1Cl
melting point: 169 °C

Cc1ccc(N2C(=O)C3ON=C(C(=O)c4cccs4)C3C2=O)cc1 (configuration not stated)
melting point: 160 °C

C/C=C(\C)c1ccccc1
melting point: -23.5 °C

O=C(O)c1ccccc1-c1cccnc1
melting point: 188 °C

O=[N+]([O-])c1c(F)ccc(Cl)c1F
melting point: 47 °C

C#CC1(O)CCC2C3CCC4=CC(O)CCC4(C)C3CCC21C (configuration not stated)
melting point: 204 °C

CNC(=O)n1cc(F)c(=O)[nH]c1=O
melting point: 226 °C

CNC(C)=C(C(=O)OC)C(=O)c1cc(Cl)nc(Cl)c1
melting point: 112 to 115 °C

C=CN1CCCCCC1=O
melting point: 34 °C

Cc1c(C=NO)c(=O)n(-c2ccccc2)n1C
melting point: 216 to 219 °C

O=C1c2ccccc2C1Cl (configuration not stated)
melting point: 67 °C

O=C=NCCCCCCN=C=O
melting point: -67 °C

O=C(O)CCC(F)(F)C(F)(F)C(F)(F)F
melting point: 38 to 39 °C

CCCC1CC(C(=O)NC(C(C)O)C2OC(SC)C(O)C(O)C2O)N(C)C1 (configuration not stated)
melting point: 295 °C

Fc1cc(Br)c(F)cc1Br
melting point: 62 °C

CCCSc1ccc2[nH]c(NC(=O)OC)nc2c1
melting point: 208 °C

CC(C)COC(=O)c1ccc(N)cc1
melting point: 64.5 °C

Oc1c(O)c(Br)c(Br)c(Br)c1Br
melting point: 191 °C

Oc1ccc(-c2nnc3n2NC(c2ccccc2O)S3)cc1 (configuration not stated)
melting point: 241 °C

O=[N+]([O-])c1ccc2[nH]c3c(c2c1)CCN(Cc1ccccc1)C3
melting point: 213 to 214 °C

CC(=O)/C(=N\Nc1cccc([N+](=O)[O-])c1)C(=O)C(F)(F)F
melting point: 205 to 206 °C

Cc1nc(-c2ccc(Br)cc2)cs1
melting point: 130 to 135 °C

CCN(CC)CCNc1ccc(CO)c2sc3ccccc3c(=O)c12
melting point: 101 °C

NC(=S)Nc1ccccc1Cl
melting point: 146 °C

C=C1C(=O)C23C4CC5C(C)(C)CCC(=O)C5(C(=O)O4)C2C(=O)CC1C3O (configuration not stated)
melting point: 250 °C

CCOC(=O)c1cnn(C)c1S(=O)(=O)NC(=O)Nc1nc(OC)cc(OC)n1
melting point: 182 °C

C#CC1(O)CCC2C3C(C)CC4=C(CCC(=O)C4)C3CCC21C (configuration not stated)
melting point: 167 °C

OCCCCCCCCCCCCCCO
melting point: 85.8 °C

CC(=O)Oc1ccc(C(C)=O)c(O)c1
melting point: 57 to 59 °C

C#CCCCCCCCCCCCCC
melting point: 10 °C

O=S(=O)(Cl)c1c(Cl)nc2sccn12
melting point: 137 to 139 °C

Nn1c(Cc2ccc(Cl)cc2)n[nH]c1=O
melting point: 181 °C

CN1CCOc2cc(C(=O)O)cnc21
melting point: 232 to 280 °C

CC(C)CCCC(C(=O)O)C1=CCC2(C)C(CCC3C4CCC(O)C4(C)CCC32)C1 (configuration not stated)
melting point: 193 °C

Cn1c(=O)c(C2=NNC(=O)C2=Cc2ccccc2O)c(O)c2ccccc21
melting point: 240 °C

O=[N+]([O-])c1ccc(N2CCNCC2)c(Cl)c1
melting point: 105 to 106 °C

N[C@@H]1CCCC[C@H]1N
melting point: 40 to 45 °C

O=C(O)c1c[nH]c2ccccc12
melting point: 200 to 203 °C

Cc1cc(Cc2cc(C)cc(C3(C)CCCCC3)c2O)c(O)c(C2(C)CCCCC2)c1
melting point: 135 °C

COc1cccc2[nH]ccc12
melting point: 70 °C

CC(C)=NN(c1ccccc1)P(=O)(N1CC1)N1CC1
melting point: 120 °C

COc1cc2c(cc1O)CN(C1CC=CC(=O)C1)CC2 (configuration not stated)
melting point: 254 to 257 °C

O=C1CCC(=O)N1I
melting point: 204 °C

ON=C1CCCc2ccccc21
melting point: 103 to 105 °C

c1ccc(C2(c3ccccc3)CC2C2=NCCN2)cc1 (configuration not stated)
melting point: 104 °C

Cc1cc(C)cc(O[Si]23OCCN(CCO2)CCO3)c1
melting point: 220 °C

C[C@](N)(CO)C(=O)O
melting point: 286 to 288 °C

COP(=O)(CN1C(=O)c2ccccc2C1=O)OC
melting point: 118 °C

O=C(/C=C/c1ccc(Cl)cc1Cl)c1ccccc1
melting point: 72.3 °C

CCCCc1nc(CO)c(Cl)[nH]1
melting point: 150 to 152 °C

CC(=O)O[C@H](c1ccccc1)C(O)(c1ccccc1)c1ccccc1
melting point: 248 to 252 °C

COc1c(CC(O)C(C)C)c(=O)n(C)c2c(OC)cccc12 (configuration not stated)
melting point: 86.5 °C

Cn1c(C=O)cc2sccc21
melting point: 63 to 64 °C

COc1cccnc1Cl
melting point: 47 °C

Ic1cccc(Cn2cccn2)c1
melting point: 51 to 54 °C

CC(C)CCCC(C)C1CCC2C3CC=C4CC(OC(=O)Cl)CCC4(C)C3CCC12C (configuration not stated)
melting point: 118 °C

Cc1ccccc1C(=O)Cc1ccc(C(N)=O)cc1
melting point: 187 to 188 °C

CNc1ccc(NCCO)c2c1C(=O)c1ccccc1C2=O
melting point: 187 °C

NNc1ncnc2scc(-c3ccccc3)c12
melting point: 150 to 152 °C

Cc1ccncc1C=NO
melting point: 180 °C

COc1cc(C)c(C=O)c(OC)c1
melting point: 65 °C

CC1(C)CC(=O)C=C(C(=O)O)O1
melting point: 167 to 171 °C

CN(C)CCCOc1ccccc1CO
melting point: 55 to 57 °C

O=C(O)c1cccc(-c2nccs2)c1
melting point: 160 to 162 °C

Cc1cc(S(=O)(=O)Cl)ccc1Br
melting point: 59 °C

CC(C)(C)OC(=O)N1CCC(c2nc(CO)cs2)CC1
melting point: 97 to 101 °C

CC12CCC3c4ccc(OC(=O)c5ccccc5)cc4CCC3C1CCC2O (configuration not stated)
melting point: 196 °C

O=C(c1ccccc1)c1noc(-c2ccccc2)c1S(=O)(=O)c1ccccc1
melting point: 188 °C

O=C1CNCCN1
melting point: 132 °C

CCCCOC(=O)C1=C(C)NC(C)=C(C(=O)OCCCC)C1c1ccco1
melting point: 87 °C

CCC1(CC2(c3cccc(Cl)c3)CO2)C(=O)c2ccccc2C1=O (configuration not stated)
melting point: 61 °C

Oc1cc2c(cc1O)CCN=C2
melting point: 244 to 248 °C

CC(=O)OC1CCC2(C)C3CCC4=C(CCC4(C)C#CCl)C3CCC2(C)C1 (configuration not stated)
melting point: 109 to 110 °C

CCCCCCCCCCCCCCCCCC(=O)OC(=O)CCCCCCCCCCCCCCCCC
melting point: 72 °C

CC(=O)Nc1ccc(C(=O)C2CCNCC2)cc1
melting point: 171 to 173 °C

CC1CNC(C(C2=NCC(C)N2)C2=NCC(C)N2)=N1 (configuration not stated)
melting point: 241 to 242 °C

CC(C)C[C@H]1OC[C@@H](C)CO1
melting point: < -21 °C

Cc1ccc(C(=O)NN)cc1
melting point: 117 °C

COc1cccc2cc(C(=O)c3cc4ccccc4o3)oc12
melting point: 154 to 155 °C

O=[N+]([O-])c1ccc(Sc2ccc(N=C=S)cc2)cc1
melting point: 124 to 126 °C

CNC1(c2ccccc2Cl)CCCCC1=O (configuration not stated)
melting point: 92.5 °C

N#Cc1cc(F)cc(Br)c1
melting point: 43 to 46 °C

C#CC1(O)CCC2C3CCC4=C(CCC(=O)C4)C3CCC21C (configuration not stated)
melting point: 170 °C

CC1CCCCC1(C)C (configuration not stated)
melting point: -29 °C

CCCCOc1ccc(-c2nn(CCC#N)c(=S)[nH]2)cc1
melting point: 115 °C

Cc1ccc(Sc2ccc(C=CC(=O)O)cc2[N+](=O)[O-])cc1
melting point: 217 to 218 °C

COc1cc2c(cc1C)C(=O)C2
melting point: 88 °C

CCCc1ccccc1/C=N/Nc1ccc([N+](=O)[O-])cc1[N+](=O)[O-]
melting point: 228 °C

CCCCCCCCCCCN
melting point: 16.5 °C

CC(C)(C)c1nnc(NS(=O)(=O)c2ccc(N)cc2)s1
melting point: 222 °C

O=C(CCCl)NCc1ccccc1
melting point: 94 °C

N#CCC(=O)N1CCCCC1
melting point: 88 °C

NC(=O)c1ccccc1C(N)=O
melting point: 222 °C

C=Cc1ccc(C(=O)OC)cc1
melting point: 36 °C

CC(=O)c1[nH]c2ccccc2c1C
melting point: 146 to 148 °C

COc1ccc(CNC(=O)c2ccccc2)cc1OCc1ccccc1
melting point: 143 °C

CC1CCCC(O)C1 (configuration not stated)
melting point: -5.5 °C

Cc1n[nH]c(C)c1Br
melting point: 121 °C

CCC(CO)(CO)CO
melting point: 60 °C

NC(=S)c1ccccc1
melting point: 116 °C

C[Si](C)(C)N(c1ccccc1)[Si](C)(C)C
melting point: 16.5 °C

O=C(Nc1cccc2c1c(S(=O)(=O)O)cc1oc(-c3ccccc3)nc12)c1ccccc1
melting point: 276 °C

CCCN(CCC)c1c([N+](=O)[O-])cc(S(C)(=O)=O)cc1[N+](=O)[O-]
melting point: 150 °C

OCCNC(CO)(CO)CO
melting point: 89 °C

CCOC1OC(C(N)=O)=CC(C)C1Br (configuration not stated)
melting point: 131 °C

O=C(O)c1c[nH]cn1
melting point: 243 to 245 °C

COc1cc2c(cc1OC)C(c1ccccc1)=NCC2
melting point: 121 to 125 °C

CC(C)(C)c1ccc(CCOc2ncnc3ccccc23)cc1
melting point: 80.5 °C

C=C(Cl)c1ccccc1
melting point: -23 °C

C#CC1(O)CCC2(C)C(CCC3C2CCC2(C)C3CCC2(C)O)C1 (configuration not stated)
melting point: 190 °C

Cc1ccc(C(=O)/C=C/c2ccc(-c3cccc([N+](=O)[O-])c3)o2)o1
melting point: 160 °C

O=c1[nH]cc(C(F)(F)F)cc1[N+](=O)[O-]
melting point: 189 to 190 °C

CS(=O)(=O)CCO
melting point: 31 to 33 °C

Clc1cc(Cl)c2c(c1Cl)Oc1ccccc1O2
melting point: 128 °C

Cc1ccccc1C(N)=S
melting point: 142 to 143 °C
